Experiment: Protonation constant (Proton-ligand formation constant) was determined
Format: ADME

pKa: 6.66
Structure (SMILES): O=[N+]([O-])c1ccc(S(=O)(=O)Nc2ccccc2)cc1
